In the assay the target is T1, human S1P1 receptor (Homo sapiens, UniProt P21453).
T1 construct: expressed in transfected cells; membranes were used
The assay can be described thus: GTP γ35S binding assay for S1P1 activity. It is filed as biochemical. The conditions noted are these: membranes of cells stably expressing the S1P1 receptor, agonist potency. On the procedure:
Compounds were synthesized and tested for S1P1 activity using the GTP γ^35S binding assay. These compounds may be assessed for their ability to activate or block activation of the human S1P1 receptor in cells stably expressing the S1P1 receptor.
GTP γ^355 binding was measured in the medium containing (mM) HEPES 25, pH 7.4, MgCl2 10, NaCl 100, dithiothreitol 0.5, digitonin 0.003%, 0.2 nM GTP γ^35 S, and 5 μg membrane protein in a volume of 150 μl. Test compounds were included in the concentration range from 0.08 to 5,000 nM unless indicated otherwise. Membranes were incubated with 100 μM 5′ adenylylimidodiphosphate for 30 min, and subsequently with 10 μM GDP for 10 min on ice. Drug solutions and membrane were mixed, and then reactions were initiated by adding GTP γ^35S and continued for 30 min at 25° C. Reaction mixtures were filtered over Whatman GF/B filters under vacuum, and washed three times with 3 mL of ice-cold buffer (HEPES 25, pH7.4, MgCl2 10 and NaCl 100). Filters were dried and mixed with scintillant, and counted for ^35S activity using a β-counter. Agonist-induced GTP γ^35S binding was obtained by subtracting that in the absence of agonist. Binding data were analyzed using a non-linear regression method. In case of antagonist assay, the reaction mixture contained 10 nM S1P in the presence of test antagonist at concentrations ranging from 0.08 to 5000 nM.
Background: GTPγS resists hydrolysis and so accumulates on activated G proteins.

Molecules are shown by their SMILES.

T1 sequence (P21453 whole entry): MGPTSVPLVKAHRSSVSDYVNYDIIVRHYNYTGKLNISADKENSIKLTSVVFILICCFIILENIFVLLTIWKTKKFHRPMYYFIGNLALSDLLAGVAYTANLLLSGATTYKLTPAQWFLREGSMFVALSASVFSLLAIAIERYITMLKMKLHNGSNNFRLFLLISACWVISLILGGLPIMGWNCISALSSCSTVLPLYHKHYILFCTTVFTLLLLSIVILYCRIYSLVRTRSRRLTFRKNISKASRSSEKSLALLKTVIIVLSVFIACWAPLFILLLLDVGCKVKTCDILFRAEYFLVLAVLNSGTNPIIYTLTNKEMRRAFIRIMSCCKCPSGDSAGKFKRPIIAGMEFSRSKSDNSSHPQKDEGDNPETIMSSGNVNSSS

Consider `Cc1nn(C(=O)CCc2ccc(CNCCC(=O)O)cc2)c2c1C1C(C2)C1(C)C` (stereo not shown) [Compound 1, 3-({4-[3-oxo-3-(3,4,4-trimethyl-3b,4,4a,5-tetrahydro-1H-cyclopropa[3,4]cyclopenta[1,2-c]pyrazol-1-yl)propyl]benzyl}amino)propanoic acid], for which the EC50 (usually the concentration that produces a half-maximal response) stood at 262 nM.

Values taken from US9108993B2, “Pyrazole derivatives as sphingosine 1-phosphate (S1P) receptor modulators” (Allergan, Inc., priority 2013, dated 2015).
